Data taken from patent US11192891B2, “Diazaspiro ROCK inhibitors” (BRISTOL-MYERS SQUIBB COMPANY, priority 2017, dated 2021).

Target: ROCK2 (Homo sapiens, UniProt O75116)
Experiment: ROCK kinase inhibition assay, FITC peptide substrate, LABCHIP 3000 readout
Assay type: biochemical
Conditions: 5 μM ATP, 1.5 μM peptide substrate
Method in brief: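 Tested across a concentration range, with percent inhibition of kinase activity derived per concentration. Peptide phosphorylation, initiated by adding the Rho kinase variant (final DMSO <2%), was quenched with EDTA and substrate/product resolved by mobility shift.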

Chain of ROCK2 (O75116 whole entry, species assumed): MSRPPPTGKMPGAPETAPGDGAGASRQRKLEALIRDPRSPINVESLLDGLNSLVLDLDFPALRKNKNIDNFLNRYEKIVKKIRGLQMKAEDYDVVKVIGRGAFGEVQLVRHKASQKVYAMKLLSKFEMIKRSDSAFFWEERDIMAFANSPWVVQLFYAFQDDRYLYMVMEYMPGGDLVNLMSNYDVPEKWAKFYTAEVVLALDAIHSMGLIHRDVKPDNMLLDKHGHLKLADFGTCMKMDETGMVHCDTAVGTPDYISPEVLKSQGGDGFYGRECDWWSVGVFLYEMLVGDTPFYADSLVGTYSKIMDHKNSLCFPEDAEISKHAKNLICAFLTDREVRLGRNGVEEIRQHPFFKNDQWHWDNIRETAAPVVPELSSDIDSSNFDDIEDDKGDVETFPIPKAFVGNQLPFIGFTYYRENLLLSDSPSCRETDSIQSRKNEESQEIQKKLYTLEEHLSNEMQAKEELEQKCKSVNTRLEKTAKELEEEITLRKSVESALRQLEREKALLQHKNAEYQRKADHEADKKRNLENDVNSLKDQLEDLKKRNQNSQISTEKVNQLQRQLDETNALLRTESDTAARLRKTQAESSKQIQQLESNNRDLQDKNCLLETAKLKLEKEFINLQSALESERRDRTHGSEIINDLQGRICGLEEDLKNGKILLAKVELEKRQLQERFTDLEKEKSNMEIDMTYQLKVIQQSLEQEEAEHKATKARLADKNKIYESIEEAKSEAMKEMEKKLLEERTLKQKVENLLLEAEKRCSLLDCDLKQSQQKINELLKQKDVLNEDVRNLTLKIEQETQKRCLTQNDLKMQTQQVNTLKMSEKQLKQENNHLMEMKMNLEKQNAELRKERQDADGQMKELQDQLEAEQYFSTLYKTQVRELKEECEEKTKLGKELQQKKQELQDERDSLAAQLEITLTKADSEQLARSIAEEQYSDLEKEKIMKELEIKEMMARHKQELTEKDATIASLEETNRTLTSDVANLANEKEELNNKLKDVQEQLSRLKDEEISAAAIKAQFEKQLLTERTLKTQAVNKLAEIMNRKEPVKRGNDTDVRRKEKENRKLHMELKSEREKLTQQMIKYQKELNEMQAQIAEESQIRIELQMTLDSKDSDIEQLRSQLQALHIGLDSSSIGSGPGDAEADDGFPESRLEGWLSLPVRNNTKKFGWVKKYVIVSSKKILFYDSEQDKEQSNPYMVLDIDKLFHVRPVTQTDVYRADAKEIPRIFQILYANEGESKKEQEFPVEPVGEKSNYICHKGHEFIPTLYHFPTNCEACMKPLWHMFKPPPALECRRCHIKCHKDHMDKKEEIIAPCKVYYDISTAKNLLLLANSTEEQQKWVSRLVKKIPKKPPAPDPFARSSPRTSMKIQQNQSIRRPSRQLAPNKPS

| IC50 [nM] | SMILES |
| --- | --- |
| 0.5 | CN1CCN(c2ccc(C(=O)N3CCC4(CC3)CCN(c3ccc(-c5ccc6[nH]ncc6c5)cc3)C4=O)cc2)CC1 [Example 37, 2-[4-(1H-indazol-5-yl)phenyl]-8-[4-(4-methylpiperazin-1-yl)benzoyl]-2,8-diazaspiro[4.5]decan-1-one] |
| 0.9 | COc1cc(N2CCC3(CCN(C(=O)c4ccc(N5CCN(C6CCN(C)CC6)CC5)cc4)CC3)C2=O)ccc1-c1cn[nH]c1 [Example 244, 2-[3-methoxy-4-(1H-pyrazol-4-yl)phenyl]-8-{4-[4-(1-methylpiperidin-4-yl)piperazin-1-yl]benzoyl}-2,8-diazaspiro[4.5]decan-1-one] |
| 2460 | COc1ccc(NC(=O)N2CCC3(CC2)CCN(c2ccc(-c4cn[nH]c4)c(OC)c2)C3=O)cc1 [Example 217, 2-[3-methoxy-4-(1H-pyrazol-4-yl)phenyl]-N-(4-methoxyphenyl)-1-oxo-2,8-diazaspiro[4.5]decane-8-carboxamide] |
| 0.3 | COc1cc(N2CCC3(CCN(C(=O)c4ccc(N5CCN(C)CC5)cc4)CC3)C2=O)ccc1-c1cn[nH]c1 [Example 120, 2-[3-methoxy-4-(1H-pyrazol-4-yl)phenyl]-8-[4-(4-methylpiperazin-1-yl)benzoyl]-2,8-diazaspiro[4.5]decan-1-one] |
| 2090 | COc1cc(N2CCC3(CCN(C(=O)c4cn5[nH]c(=O)cc5nc4C)CC3)C2=O)ccc1-c1cn[nH]c1 [Example 131, 2-[3-methoxy-4-(1H-pyrazol-4-yl)phenyl]-8-{5-methyl-2-oxo-1H,2H-pyrazolo[1,5-a]pyrimidine-6-carbonyl}-2,8-diazaspiro[4.5]decan-1-one] |
| 10 | COc1cc(N2CCC3(CCN(C(=O)c4ccc(C5CC5)cc4)CC3)C2=O)ccc1-c1cn[nH]c1 [Example 19, 8-(4-cyclopropylbenzoyl)-2-[3-methoxy-4-(1H-pyrazol-4-yl)phenyl]-2,8-diazaspiro[4.5]decan-1-one] |
| 414 | COc1cc(N2CCC3(CCN(C(=O)c4cccnc4)CC3)C2=O)ccc1-c1cn[nH]c1 [Example 73, 2-[3-methoxy-4-(1H-pyrazol-4-yl)phenyl]-8-(pyridine-3-carbonyl)-2,8-diazaspiro[4.5]decan-1-one] |
| 88 | COc1cc(N2CCC3(CCN(C(=O)c4ncc(Br)cn4)CC3)C2=O)ccc1-c1cn[nH]c1 [Example 116, 8-(5-bromopyrimidine-2-carbonyl)-2-[3-methoxy-4-(1H-pyrazol-4-yl)phenyl]-2,8-diazaspiro[4.5]decan-1-one] |
| 843 | COc1cc(N2CCC3(CCN(S(=O)(=O)c4ccc(S(C)(=O)=O)cc4)CC3)C2=O)ccc1-c1cn[nH]c1 [Example 218, 8-(4-methanesulfonylbenzenesulfonyl)-2-[3-methoxy-4-(1H-pyrazol-4-yl)phenyl]-2,8-diazaspiro[4.5]decan-1-one] |
| 1 | COc1cc(N2CCC3(CCN(C(=O)c4ccc(N5CCN(Cc6cccnc6)CC5)cc4)CC3)C2=O)ccc1-c1cn[nH]c1 [Example 243, 2-[3-methoxy-4-(1H-pyrazol-4-yl)phenyl]-8-(4-{4-[(pyridin-3-yl)methyl]piperazin-1-yl}benzoyl)-2,8-diazaspiro[4.5]decan-1-one] |
| 10 | COc1cc(N2CCC3(CCN(C(=O)c4ccc(-c5cncnc5)cc4)CC3)C2=O)ccc1-c1cn[nH]c1 [Example 135, 2-[3-methoxy-4-(1H-pyrazol-4-yl)phenyl]-8-[4-(pyrimidin-5-yl)benzoyl]-2,8-diazaspiro[4.5]decan-1-one] |
| 1220 | O=C(c1ccccc1)N1CCC2(CCN(c3ccc(-c4cn[nH]c4)cc3)C2=O)C1 (stereo not drawn) [Example 42, 7-benzoyl-2-[4-(1H-pyrazol-4-yl)phenyl]-2,7-diazaspiro[4.4]nonan-1-one] |
| 0.2 | COc1cc(N2CCC3(CCN(C(=O)c4ccc(N5CCN(C(C)C)CC5)cc4)CC3)C2=O)ccc1-c1cn[nH]c1 [Example 233, 2-[3-methoxy-4-(1H-pyrazol-4-yl)phenyl]-8-{4-[4-(propan-2-yl)piperazin-1-yl]benzoyl}-2,8-diazaspiro[4.5]decan-1-one] |
| 73 | COc1cc(N2CCC3(CCN(C(=O)c4ccc(NC(C)=O)cc4)CC3)C2=O)ccc1-c1cn[nH]c1 [Example 88, N-(4-{2-[3-methoxy-4-(1H-pyrazol-4-yl)phenyl]-1-oxo-2,8-diazaspiro[4.5]decane-8-carbonyl}phenyl)acetamide] |
| 4.1 | COc1cc(N2CCC3(CCN(C(=O)c4ccc(-c5cccnc5)cc4)CC3)C2=O)ccc1-c1cn[nH]c1 [Example 158, 2-[3-methoxy-4-(1H-pyrazol-4-yl)phenyl]-8-[4-(pyridin-3-yl)benzoyl]-2,8-diazaspiro[4.5]decan-1-one] |
| 1970 | COc1cc(N2CCC3(CCN(C(=O)C4Cc5ccccc5O4)CC3)C2=O)ccc1-c1cn[nH]c1 (stereo not drawn) [Example 102, 8-(2,3-dihydro-1-benzofuran-2-carbonyl)-2-[3-methoxy-4-(1H-pyrazol-4-yl)phenyl]-2,8-diazaspiro[4.5]decan-1-one] |
| 180 | COc1ccc(C(=O)N2CCC3(CCN(c4ccc(-c5cn[nH]c5)cc4)C3=O)C2)cc1 (stereo not drawn) [Example 45, 7-(4-methoxybenzoyl)-2-[4-(1H-pyrazol-4-yl)phenyl]-2,7-diazaspiro[4.4]nonan-1-one] |

| IC50 [nM] | SMILES |
| --- | --- |
| 0.1 | COc1cc(N2CCC3(CCN(C(=O)c4ccc(N5CCN(Cc6ccc(N(C)C)cc6)CC5)cc4)CC3)C2=O)ccc1-c1cn[nH]c1 [Example 245, 8-[4-(4-{[4-(dimethylamino)phenyl]methyl}piperazin-1-yl)benzoyl]-2-[3-methoxy-4-(1H-pyrazol-4-yl)phenyl]-2,8-diazaspiro[4.5]decan-1-one] |
| 557 | COc1cc(N2CCC3(CCN(C(=O)c4ccc(C(F)(F)F)nc4)CC3)C2=O)ccc1-c1cn[nH]c1 [Example 87, 2-[3-methoxy-4-(1H-pyrazol-4-yl)phenyl]-8-[6-(trifluoromethyl)pyridine-3-carbonyl]-2,8-diazaspiro[4.5]decan-1-one] |
| 0.3 | CN1CCN(c2ccc(C(=O)N3CCC4(CC3)CCN(c3ccc(-c5ccnc6[nH]ccc56)cc3)C4=O)cc2)CC1 [Example 35, 8-[4-(4-methylpiperazin-1-yl)benzoyl]-2-(4-{1H-pyrrolo[2,3-b]pyridin-4-yl}phenyl)-2,8-diazaspiro[4.5]decan-1-one] |
| 195 | COc1cc(N2CCC3(CCN(C(=O)C4CCN(c5ccncc5)CC4)CC3)C2=O)ccc1-c1cn[nH]c1 [Example 175, 2-[3-methoxy-4-(1H-pyrazol-4-yl)phenyl]-8-[1-(pyridin-4-yl)piperidine-4-carbonyl]-2,8-diazaspiro[4.5]decan-1-one] |
| 27 | COc1cc(N2CCC3(CCN(C(=O)c4cc(C)[nH]n4)CC3)C2=O)ccc1-c1cn[nH]c1 [Example 187, 2-[3-methoxy-4-(1H-pyrazol-4-yl)phenyl]-8-(5-methyl-1H-pyrazole-3-carbonyl)-2,8-diazaspiro[4.5]decan-1-one] |
| 2.2 | COc1cc(N2CCC3(CCN(C(=O)c4ccc(N5CCN(CC6CCCC6)CC5)cc4)CC3)C2=O)ccc1-c1cn[nH]c1 [Example 230, 8-{4-[4-(cyclopentylmethyl)piperazin-1-yl]benzoyl}-2-[3-methoxy-4-(1H-pyrazol-4-yl)phenyl]-2,8-diazaspiro[4.5]decan-1-one] |
| 27 | COc1cc(N2CCC3(CCN(C(=O)c4cc5ccccc5s4)CC3)C2=O)ccc1-c1cn[nH]c1 [Example 76, 8-(1-benzothiphene-2-carbonyl)-2-[3-methoxy-4-(1H-pyrazol-4-yl)phenyl]-2,8-diazaspiro[4.5]decan-1-one] |
| 57 | COc1cc(N2CCC3(CCN(C(=O)c4ccc(-n5cnnn5)cc4)CC3)C2=O)ccc1-c1cn[nH]c1 [Example 118] |
| 9.1 | COc1cc(N2CCC3(CCN(C(=O)c4ccc5c(c4)nnn5C)CC3)C2=O)ccc1-c1cn[nH]c1 [Example 196, 2-[3-methoxy-4-(1H-pyrazol-4-yl)phenyl]-8-(1-methyl-1H-1,2,3-benzotriazole-5-carbonyl)-2,8-diazaspiro[4.5]decan-1-one] |
| 6.2 | COc1cc(N2CCC3(CCN(C(=O)c4ccc5c(cnn5C)c4)CC3)C2=O)ccc1-c1cn[nH]c1 [Example 152, 2-[3-methoxy-4-(1H-pyrazol-4-yl)phenyl]-8-(1-methyl-1H-indazole-5-carbonyl)-2,8-diazaspiro[4.5]decan-1-one] |
| 5.2 | CCN(CC)c1ccc(C(=O)N2CCC3(CC2)CCN(c2ccc(-c4cn[nH]c4)c(OC)c2)C3=O)cc1 [Example 194, 8-[4-(diethylamino)benzoyl]-2-[3-methoxy-4-(1H-pyrazol-4-yl)phenyl]-2,8-diazaspiro[4.5]decan-1-one] |
| 85 | COc1cccc(C(=O)N2CCC3(CC2)CCN(c2ccc(-c4cn[nH]c4)cc2)C3=O)c1 [Example 5, 8-(3-methoxybenzoyl)-2-[4-(1H-pyrazol-4-yl)phenyl]-2,8-diazaspiro[4.5]decan-1-one] |
| 2070 | COC(=O)c1ccc(S(=O)(=O)N2CCC3(CCN(c4ccc(-c5cn[nH]c5)c(OC)c4)C3=O)CC2)o1 [Example 208, methyl 5-({2-[3-methoxy-4-(1H-pyrazol-4-yl)phenyl]-1-oxo-2,8-diazaspiro[4.5]decan-8-yl}sulfonyl)furan-2-carboxylate] |
| 116 | CN1CCN(c2ccc(C(=O)N3CCC4(CC3)CCN(c3ccc(-c5ccc6nn[nH]c6c5)cc3)C4=O)cc2)CC1 [Example 38, 2-[4-(1H-1,2,3-benzotriazol-6-yl)phenyl]-8-[4-(4-methylpiperazin-1-yl)benzoyl]-2,8-diazaspiro[4.5]decan-1-one] |
| 16 | COc1cc(N2CCC3(CCN(C(=O)c4ccc(-c5nnco5)cc4)CC3)C2=O)ccc1-c1cn[nH]c1 [Example 163, 2-[3-methoxy-4-(1H-pyrazol-4-yl)phenyl]-8-[4-(1,3,4-oxadiazol-2-yl)benzoyl]-2,8-diazaspiro[4.5]decan-1-one] |
| 20 | COc1ccc2cc(C(=O)N3CCC4(CC3)CCN(c3ccc(-c5cn[nH]c5)c(OC)c3)C4=O)ccc2c1 [Example 176, 2-[3-methoxy-4-(1H-pyrazol-4-yl)phenyl]-8-(6-methoxynaphthalene-2-carbonyl)-2,8-diazaspiro[4.5]decan-1-one] |
